Measured values from patent publication US7807439B2, “Staphylococcus aureus-specific detection media and identifying and/or counting method using same” (Biomerieux S.A., priority 2001, dated 2010).

Columns and labels:
S. aureus 070 = test: Experiment 5: fluorescent substrates in liquid medium, VITEK 2 reading; format: cell-based, Staphylococcus aureus; conditions: substrate 200 mg/l, read over 19 hours
Procedure: (§1) The media below were prepared in the base of the medium described in experiment 1, but in the absence of agar and in the presence of a fluorescent substrate instead of a chromogenic substrate. […] The various liquid media are distributed into the cupules of a support the size of a bank card, specific for the automated VITEK 2 (trademark) system of the company bioMérieux. […] The results, given in table 9 below, represent the incubation time, in hours, required to obtain the maximum level of fluorescence which can be measured by the device: […]

S. aureus 276 [1] = test: as above; format: cell-based, Staphylococcus aureus; conditions: substrate 200 mg/l, read over 19 hours
Procedure: as §1

S. epidermidis 009 = test: as above; format: cell-based, Staphylococcus epidermidis; conditions: substrate 200 mg/l, read over 19 hours
Procedure: as §1

S. xylosus 008 = test: as above; format: cell-based, Staphylococcus xylosus; conditions: substrate 200 mg/l, read over 19 hours
Procedure: as §1

S. saprophyticus 030 = test: as above; format: cell-based, Staphylococcus saprophyticus; conditions: substrate 200 mg/l, read over 19 hours
Procedure: as §1

S. haemolyticus 131 = test: as above; format: cell-based, Staphylococcus haemolyticus; conditions: substrate 200 mg/l, read over 19 hours
Procedure: as §1

S. intermedius 075 [2] = test: as above; format: cell-based, Staphylococcus intermedius; conditions: substrate 200 mg/l, read over 19 hours
Procedure: as §1

[3] = test system: coagulase-positive staphylococcal strains; test: Experiment 5: fluorescent substrates, summary for coagulase-positive strains; format: cell-based, Staphylococcus aureus and Staphylococcus intermedius
Procedure: as §1

[4] = test system: coagulase-negative strains; test: Experiment 5: fluorescent substrates, summary for coagulase-negative strains; format: cell-based
Procedure: as §1

Staphylococcal species = test: Experiment 6: Staphylococcal growth in the presence of inhibitors; format: cell-based, Staphylococcus; conditions: inhibitors added to the medium, concentrations per mixture
S. aureus 276 [5] = test: Experiment 4: naphthol derivative substrates in API galleries, liquid medium; format: cell-based, Staphylococcus aureus; parameters: key to intensity of coloration (enzyme activity mark): the mark 0 corresponds to a negative reaction; marks 1, 2, 3 and 4 indicate intermediate levels of coloration and therefore of enzyme activity; marks 1, 2, 3 and 4 indicate intermediate levels of coloration and therefore of enzyme activity; marks 1, 2, 3 and 4 indicate intermediate levels of coloration and therefore of enzyme activity; marks 1, 2, 3 and 4 indicate intermediate levels of coloration and therefore of enzyme activity; the mark 5 to a reaction of maximum intensity; conditions: for intensity of coloration (enzyme activity mark): S. aureus 276, 4 hours of incubation at 37° C.
Procedure: (§2) The experiment below was carried out in a liquid medium and in the presence of naphthol derivative-based chromogenic substrates.
(§3) The medium and the substrates are distributed into API “galleries” (trademark) produced by the company bioMérieux at Marcy I'Etoile, France.
(§4) These “galleries” constitute a semi-quantitative method for searching for enzyme activities in microorganisms and make it possible to rapidly and simultaneously study nineteen enzyme activities. Each “gallery” comprises twenty cupules in which the solutions containing the enzyme substrates are distributed. The enzyme assays are carried out by distributing 65 μl of bacterial suspension at 5-6 McFarland into each cupule.
(§5) The intensity of coloration for each cupule is examined visually after 4 hours of incubation at 37° C. and after the addition of appropriate reagents: ZYM A (ref.: 70470) and ZYM B (ref.: 70480), which can be obtained from bioMérieux also mentioned above. The intensity of coloration will be directly proportional to the amount of substrate hydrolysed by the enzyme.
(§6) The values for the intensity of coloration are then marked on a results sheet according to the following classification: the mark 0 corresponds to a negative reaction, the mark 5 to a reaction of maximum intensity, marks 1, 2, 3 and 4 indicate intermediate levels of coloration and therefore of enzyme activity. More detailed information on this marking can be found in the API reading scale provided with the “galleries” of the same name.
(§7) The enzyme activity sought and the corresponding naphthol derivative substrates are described in table 6 below: […]

S. saprophyticus 009 = test: as above; format: cell-based, Staphylococcus saprophyticus; parameters: key: the mark 0 corresponds to a negative reaction; marks 1, 2, 3 and 4 indicate intermediate levels of coloration and therefore of enzyme activity; marks 1, 2, 3 and 4 indicate intermediate levels of coloration and therefore of enzyme activity; marks 1, 2, 3 and 4 indicate intermediate levels of coloration and therefore of enzyme activity; marks 1, 2, 3 and 4 indicate intermediate levels of coloration and therefore of enzyme activity; the mark 5 to a reaction of maximum intensity; conditions: 4 hours of incubation at 37° C.
Procedure: as §2, §3, §4, §5, §6, §7

S. epidermidis 103 = test: as above; format: cell-based, Staphylococcus epidermidis; parameters: key: the mark 0 corresponds to a negative reaction; marks 1, 2, 3 and 4 indicate intermediate levels of coloration and therefore of enzyme activity; marks 1, 2, 3 and 4 indicate intermediate levels of coloration and therefore of enzyme activity; marks 1, 2, 3 and 4 indicate intermediate levels of coloration and therefore of enzyme activity; marks 1, 2, 3 and 4 indicate intermediate levels of coloration and therefore of enzyme activity; the mark 5 to a reaction of maximum intensity; conditions: 4 hours of incubation at 37° C.
Procedure: as §2, §3, §4, §5, §6, §7

S. haemolyticus 137 = test: as above; format: cell-based, Staphylococcus haemolyticus; parameters: key: the mark 0 corresponds to a negative reaction; marks 1, 2, 3 and 4 indicate intermediate levels of coloration and therefore of enzyme activity; marks 1, 2, 3 and 4 indicate intermediate levels of coloration and therefore of enzyme activity; marks 1, 2, 3 and 4 indicate intermediate levels of coloration and therefore of enzyme activity; marks 1, 2, 3 and 4 indicate intermediate levels of coloration and therefore of enzyme activity; the mark 5 to a reaction of maximum intensity; conditions: 4 hours of incubation at 37° C.
Procedure: as §2, §3, §4, §5, §6, §7

S. intermedius 075 [6] = test: as above; format: cell-based, Staphylococcus intermedius; parameters: key: the mark 0 corresponds to a negative reaction; marks 1, 2, 3 and 4 indicate intermediate levels of coloration and therefore of enzyme activity; marks 1, 2, 3 and 4 indicate intermediate levels of coloration and therefore of enzyme activity; marks 1, 2, 3 and 4 indicate intermediate levels of coloration and therefore of enzyme activity; marks 1, 2, 3 and 4 indicate intermediate levels of coloration and therefore of enzyme activity; the mark 5 to a reaction of maximum intensity; conditions: 4 hours of incubation at 37° C.
Procedure: as §2, §3, §4, §5, §6, §7

α-glucosidase = test: Experiment 6: detection of α-glucosidase activity in the presence of inhibitors; format: cell-based, Staphylococcus; conditions: inhibitors added to the medium, concentrations per mixture

## Cc1cc(=O)oc2cc(O[C@H]3O[C@H](CO)[C@@H](O)[C@H](O)[C@H]3O)ccc12 [4-MU-α-GLU, 4-methylumbelliferyl-α-D-glucoside]
S. aureus 070
  hours of incubation required to obtain the maximum level of fluorescence: 8 h
S. aureus 276 [1]
  hours of incubation required to obtain the maximum level of fluorescence: 7 h
S. epidermidis 009
  hours of incubation required to obtain the maximum level of fluorescence: 19 h
S. xylosus 008
  hours of incubation required to obtain the maximum level of fluorescence: 11 h
S. saprophyticus 030
  hours of incubation required to obtain the maximum level of fluorescence: 19 h
S. haemolyticus 131
  hours of incubation required to obtain the maximum level of fluorescence: 19 h
S. intermedius 075 [2]
  hours of incubation required to obtain the maximum level of fluorescence: 5 h
[3]
  incubation time to obtain a maximum level of fluorescence: < 8 h
[4]
  incubation time to obtain a maximum level of fluorescence: > 10 h

## Cc1cc(=O)oc2cc(O[C@@H]3O[C@H](CO)[C@H](O)[C@H](O)[C@H]3O)ccc12 [4-MU-β-GAL, 4-methylumbelliferyl-β-D-galactoside]
S. aureus 070
  hours of incubation required to obtain the maximum level of fluorescence: 3 h
S. aureus 276 [1]
  hours of incubation required to obtain the maximum level of fluorescence: 3 h
S. epidermidis 009
  hours of incubation required to obtain the maximum level of fluorescence: 4 h
S. xylosus 008
  hours of incubation required to obtain the maximum level of fluorescence: 5 h
S. saprophyticus 030
  hours of incubation required to obtain the maximum level of fluorescence: 12 h
S. haemolyticus 131
  hours of incubation required to obtain the maximum level of fluorescence: 12 h
S. intermedius 075 [2]
  hours of incubation required to obtain the maximum level of fluorescence: 2 h

## Cc1cc(=O)oc2cc(O[C@@H]3O[C@H](CO)[C@@H](O)[C@H](O)[C@H]3O)ccc12 [4-MU-β-GLU, 4-methylumbelliferyl-β-D-glucoside]
S. aureus 070
  hours of incubation required to obtain the maximum level of fluorescence: 4 h
S. aureus 276 [1]
  hours of incubation required to obtain the maximum level of fluorescence: 6 h
S. epidermidis 009
  hours of incubation required to obtain the maximum level of fluorescence: 8 h
S. xylosus 008
  hours of incubation required to obtain the maximum level of fluorescence: 9 h
S. saprophyticus 030
  hours of incubation required to obtain the maximum level of fluorescence: 9 h
S. haemolyticus 131
  hours of incubation required to obtain the maximum level of fluorescence: 7 h
S. intermedius 075 [2]
  hours of incubation required to obtain the maximum level of fluorescence: 7 h

## Cc1cc(=O)oc2cc(O[C@@H]3O[C@H](C(=O)O)[C@@H](O)[C@H](O)[C@H]3O)ccc12 [4-MU-β-GUR, 4-methylumbelliferyl-β-D-glucuronide]
S. aureus 070
  hours of incubation required to obtain the maximum level of fluorescence: 3 h
S. aureus 276 [1]
  hours of incubation required to obtain the maximum level of fluorescence: 3 h
S. epidermidis 009
  hours of incubation required to obtain the maximum level of fluorescence: 4 h
S. xylosus 008
  hours of incubation required to obtain the maximum level of fluorescence: 5 h
S. saprophyticus 030
  hours of incubation required to obtain the maximum level of fluorescence: 19 h
S. haemolyticus 131
  hours of incubation required to obtain the maximum level of fluorescence: 19 h
S. intermedius 075 [2]
  hours of incubation required to obtain the maximum level of fluorescence: 2 h

## [Cl-].[Li+] [LiCl, lithium chloride]
Staphylococcal species
  Staphylococcal growth: decreases

## O=P(O)(O)Oc1ccc2ccccc2c1 [No 2, 2-naphthyl-phosphate]
S. aureus 276 [5]
  intensity of coloration (enzyme activity mark): 2
S. saprophyticus 009
  intensity of coloration (enzyme activity mark): 1
S. epidermidis 103
  intensity of coloration (enzyme activity mark): 3
S. haemolyticus 137
  intensity of coloration (enzyme activity mark): 0
S. intermedius 075 [6]
  intensity of coloration (enzyme activity mark): 4

## OC[C@H]1O[C@H](Oc2ccc3cc(Br)ccc3c2)[C@H](O)[C@@H](O)[C@H]1O [No 3, 6-bromo-2-naphthyl-α-D-galactopyranoside]
S. aureus 276 [5]
  intensity of coloration (enzyme activity mark): 0
S. saprophyticus 009
  intensity of coloration (enzyme activity mark): 0
S. epidermidis 103
  intensity of coloration (enzyme activity mark): 0
S. haemolyticus 137
  intensity of coloration (enzyme activity mark): 0
S. intermedius 075 [6]
  intensity of coloration (enzyme activity mark): 0

## OC[C@H]1O[C@@H](Oc2ccc3ccccc3c2)[C@H](O)[C@@H](O)[C@H]1O [No 4, 2-naphthyl-β-D-galactopyranoside]
S. aureus 276 [5]
  intensity of coloration (enzyme activity mark): 0
S. saprophyticus 009
  intensity of coloration (enzyme activity mark): 3
S. epidermidis 103
  intensity of coloration (enzyme activity mark): 0
S. haemolyticus 137
  intensity of coloration (enzyme activity mark): 0
S. intermedius 075 [6]
  intensity of coloration (enzyme activity mark): 3

## OC[C@H]1O[C@H](Oc2ccc3ccccc3c2)[C@H](O)[C@@H](O)[C@@H]1O [No 6, 2-naphthyl-α-D-glucopyranoside]
S. aureus 276 [5]
  intensity of coloration (enzyme activity mark): 5
S. aureus 276 [5]; Staphylococcus aureus strain, API gallery
  α-glucosidase activity: strongly expressed
S. saprophyticus 009
  intensity of coloration (enzyme activity mark): 1
S. epidermidis 103
  intensity of coloration (enzyme activity mark): 1
S. haemolyticus 137
  intensity of coloration (enzyme activity mark): 2
S. intermedius 075 [6]
  intensity of coloration (enzyme activity mark): 1

## OC[C@H]1O[C@@H](Oc2ccc3cc(Br)ccc3c2)[C@H](O)[C@@H](O)[C@@H]1O [No 7, 6-bromo-2-naphtyl-β-D-glucopyranoside]
S. aureus 276 [5]
  intensity of coloration (enzyme activity mark): 0
S. saprophyticus 009
  intensity of coloration (enzyme activity mark): 0
S. epidermidis 103
  intensity of coloration (enzyme activity mark): 0
S. haemolyticus 137
  intensity of coloration (enzyme activity mark): 0
S. intermedius 075 [6]
  intensity of coloration (enzyme activity mark): 0

## C[C@H]1[C@H](NC(=O)/C(=N\OC(C)(C)C(=O)O)c2csc(N)n2)C(=O)N1S(=O)(=O)O [aztreonam]
Staphylococcal species
  Staphylococcal growth: does not disturb the bacterial growth
α-glucosidase
  effect on detection/expression of α-glucosidase: very slightly decreased

## colistin
Staphylococcal species
  Staphylococcal growth: virtually no effect

## naphthol-β-D-glucuronide [No 5]
S. aureus 276 [5]
  intensity of coloration (enzyme activity mark): 0
S. saprophyticus 009
  intensity of coloration (enzyme activity mark): 0
S. epidermidis 103
  intensity of coloration (enzyme activity mark): 0
S. haemolyticus 137
  intensity of coloration (enzyme activity mark): 0
S. intermedius 075 [6]
  intensity of coloration (enzyme activity mark): 0
